{
  "source": "patent US20240264159A1",
  "about": "(priority 2021, published 2024)",
  "target": "Spike SARS-CoV-2 foreign nanoparticles / coated host ACE2 nanoparticles (Severe acute respiratory syndrome coronavirus 2, UniProt P0DTC2, D614G)",
  "assay_type": "biochemical",
  "data": [
    {"smiles": "C[C@@H]1O[C@@H](O[C@H]2C[C@@H](O)[C@]3(CO)[C@H]4[C@H](O)C[C@]5(C)[C@@H](C6=CC(=O)OC6)CC[C@]5(O)[C@@H]4CC[C@]3(O)C2)[C@H](O)[C@H](O)[C@H]1O", "note": "[ouabain]", "values": [
      {"measurement": "neutralization/blocking of fusion, coated host ACE2 nanoparticles", "result": "Neutralization was further blocked"}
    ]}
  ]
}
